Experimental data taken from ChEMBL document CHEMBL2311317, “Organosilicon molecules with medicinal applications” (J Med Chem, 2013).

Biological target: Matrix protein 2 (Influenza A virus (A/Udorn/307/1972(H3N2)), UniProt P0DOF8, V27A)

| SMILES | IC50 [µM] |
| --- | --- |
| NC1CC[Si]2(CCCC2)CC1 | 96.3 |
| NC1CCC2(CCCC2)CC1 | 319 |
